In paper PMC6792352, “Limited Chemical Structural Diversity Found to Modulate Thyroid Hormone Receptor in the Tox21 Chemical Library” (Environmental Health Perspectives, 2019):
Counter-ions that a name gives are not always drawn.

Test: in vitro
Settings: rat, gh3-tre-luc cells

Structure (SMILES) | CC50 at 24 h (AC50 (uM) modified / 1000) | further results
COC(=O)Nc1nc2ccc([S+]([O-])c3ccccc3)cc2[nH]1 (stereo not drawn) [Oxfendazole] | > 50 µM | 
N[C@H](C(=O)O)c1ccc(O)cc1 [Oxfenicine] | > 50 µM | 
CCCOc1ccc2nc(NC(=O)OC)[nH]c2c1 [Oxibendazole] | 0.527 µM | 
NCCc1cc(O)c(O)cc1O [Oxidopamine hydrochloride] |  | CC50 at 24 h (AC50 (uM) modified / 1000, Tox21_110001=Tox21_111324, viability, 1 nM T3 present, 24 h): 45.2 µM
NC(=O)CN1CC(O)CC1=O (stereo not drawn) [Oxiracetam] | > 50 µM | 
CCn1cc(C(=O)O)c(=O)c2cc3c(cc21)OCO3 [Oxolinic acid] | > 90 µM | 
CC(CN(C)C)CN1c2ccccc2S(=O)(=O)c2ccccc21 (stereo not drawn) [Oxomemazine hydrochloride] | 37.7 µM | 
C=CCOc1ccccc1OCC(O)CNC(C)C (stereo not drawn) [Oxprenolol hydrochloride] | > 20 µM | 
CCN(CC)CC#CCOC(=O)C(O)(c1ccccc1)C1CCCCC1 (stereo not drawn) [Oxybutynin chloride] | 15.3 µM | 
CC1=C(C(=O)Nc2ccccc2)S(=O)(=O)CCO1 [Oxycarboxin] | 40.7 µM | 
Cc1cc(C(C)(C)C)c(O)c(C)c1CC1=NCCN1 [Oxymetazoline] | > 50 µM | 
C[C@]12C/C(=C/O)C(=O)C[C@@H]1CC[C@@H]1[C@@H]2CC[C@@]2(C)[C@H]1CC[C@]2(C)O [Oxymetholone] |  | CC50 at 24 h (AC50 (uM) modified / 1000, Tox21_110001=Tox21_111131, viability, 1 nM T3 present, 24 h): > 50 µM; CC50 at 24 h (AC50 (uM) modified / 1000, Tox21_110001=Tox21_200071, viability, 1 nM T3 present, 24 h): 67.3 µM
COc1cc2[nH]c(C)c(CCN3CCN(c4ccccc4)CC3)c2cc1OC [Oxypertine hydrochloride] | 23.2 µM | 
CCCCC1C(=O)N(c2ccccc2)N(c2ccc(O)cc2)C1=O (stereo not drawn) [Oxyphenbutazone] | 3.72 µM | 
CN1CCCN=C1COC(=O)C(O)(c1ccccc1)C1CCCCC1 (stereo not drawn) [Oxyphencyclimine hydrochloride] | > 50 µM | 
CC(=O)Oc1ccc(C2(c3ccc(OC(C)=O)cc3)C(=O)Nc3ccccc32)cc1 [Oxyphenisatin acetate] | > 50 µM | 
O=C1Nc2ccccc2C1(c1ccc(O)cc1)c1ccc(O)cc1 [Oxyphenisatin] | 61.2 µM | 
CC[N+](C)(CC)CCOC(=O)C(O)(c1ccccc1)C1CCCCC1 (stereo not drawn) [Oxyphenonium bromide] | > 50 µM | 
O=c1[nH]c(=O)c2c[nH]nc2[nH]1 [Oxypurinol] | > 90 µM | 
CN(C)[C@@H]1C(O)=C(C(N)=O)C(=O)[C@@]2(O)C(O)=C3C(=O)c4c(O)cccc4[C@@](C)(O)[C@H]3[C@H](O)[C@@H]12 [Oxytetracycline hydrochloride] | > 90 µM | 
CN(C)[C@@H]1C(=O)C(C(N)=O)=C(O)[C@@]2(O)C(=O)C3=C(O)c4c(O)cccc4[C@@](C)(O)[C@H]3[C@H](O)[C@@H]12 [Oxytetracycline] | > 90 µM | 
CC[C@H](C)[C@@H]1NC(=O)[C@H](Cc2ccc(O)cc2)NC(=O)[C@@H](N)CSSC[C@@H](C(=O)N2CCC[C@H]2C(=O)N[C@@H](CC(C)C)C(=O)NCC(N)=O)NC(=O)[C@H](CC(N)=O)NC(=O)[C@H](CCC(N)=O)NC1=O [Oxytocin acetate] | > 50 µM | 
O=C(O)/C=C/c1ccc(Cn2ccnc2)cc1 [Ozagrel hydrochloride] | > 20 µM | 
NCC1(Cc2noc(=O)[nH]2)CCCCC1 [PD 0200347] | > 90 µM | 
O=C(NOC[C@H](O)CO)c1ccc(F)c(F)c1Nc1ccc(I)cc1F [PD 0325901] | > 50 µM | 
Cc1cc(CCN2CCN(c3nsc4ccccc34)CC2)cc2c1NC(=O)CC2(C)C [PD 0343701] | 46.9 µM | 

Structure (SMILES) | CC50 at 24 h (AC50 (uM) modified / 1000) | further results
Cc1oc(-c2ccccc2)nc1CCOc1cccc2c1ccn2CCC(=O)O [PD-0333941] | 18.9 µM | 
O=C(N[C@H]1CN2CCC1CC2)c1cc2ccoc2cn1 [PHA-00543613] | > 90 µM | 
O=C(N[C@H]1CN2CCC1CC2)c1ccc2c(c1)OCCO2 [PHA-00568487] | > 90 µM | 
CCC(C)N(C)C(=O)c1cc2ccccc2c(-c2ccccc2Cl)n1 (stereo not drawn) [PK 11195] | 48.6 µM | 
CC(=O)O[C@H]1C(=O)[C@@]2(C)[C@H]([C@H](OC(=O)c3ccccc3)[C@]3(O)C[C@H](OC(=O)[C@H](O)[C@@H](NC(=O)c4ccccc4)c4ccccc4)C(C)=C1C3(C)C)[C@]1(OC(C)=O)CO[C@@H]1C[C@@H]2O [Paclitaxel] | 0.25 µM | 
CC(C)CCOC(=O)c1ccc(N(C)C)cc1 [Padimate] | > 50 µM | 
Cc1nc2n(c(=O)c1CCN1CCC(c3noc4cc(F)ccc34)CC1)CCCC2O (stereo not drawn) [Paliperidone] | > 50 µM | 
COc1cc2c(cc1OC)-c1cc3ccc(OC)c(OC)c3c[n+]1CC2 [Palmatine chloride hydrate] | > 90 µM | 
CCCCCCCCCCCCCCCC(=O)NCCO [Palmitoylethanolamide] | > 50 µM | 
O=C1c2cccc3c2[C@H](CCC3)CN1[C@@H]1CN2CCC1CC2 [Palonosetron hydrochloride] | 23.5 µM | 
CCOC(=O)Cn1cccc1-c1nc(-c2ccc(OC)cc2)c(-c2ccc(OC)cc2)s1 [Pamicogrel] | > 50 µM | 
NCCC(O)(P(=O)(O)O)P(=O)(O)O [Pamidronic acid] | > 50 µM | 
O=C(O)c1cc2ccccc2c(Cc2c(O)c(C(=O)O)cc3ccccc23)c1O [Pamoic acid] | > 50 µM | 
CC(=O)O[C@H]1C[C@@H]2CC[C@@H]3[C@H](CC[C@@]4(C)[C@H]3C[C@H]([N+]3(C)CCCCC3)[C@@H]4OC(C)=O)[C@@]2(C)C[C@@H]1[N+]1(C)CCCCC1 [Pancuronium bromide] | > 50 µM | 
CC(C)(CO)C(O)C(=O)NCCCO (stereo not drawn) [Panthenol] | > 90 µM | 
COc1ccnc(C[S+]([O-])c2nc3ccc(OC(F)F)cc3[nH]2)c1OC (stereo not drawn) [Pantoprazole sodium] | > 90 µM | 
COc1ccc(Cc2nccc3cc(OC)c(OC)cc23)cc1OC [Papaverine hydrochloride] | > 20 µM | 
CC1OC(C)OC(C)O1 (stereo not drawn) [Paraldehyde] |  | CC50 at 24 h (AC50 (uM) modified / 1000, Tox21_110001=Tox21_111607, viability, 1 nM T3 present, 24 h): > 50 µM; CC50 at 24 h (AC50 (uM) modified / 1000, Tox21_110001=Tox21_301299, viability, 1 nM T3 present, 24 h): > 90 µM
CC(=O)OCC(=O)[C@@]1(O)[C@H](C)C[C@H]2[C@@H]3C[C@H](F)C4=CC(=O)C=C[C@]4(C)[C@H]3[C@@H](O)C[C@@]21C [Paramethasone acetate] | > 50 µM | 
CCC(=O)Nc1ccc(O)cc1 [Parapropamol] | > 50 µM | 
CCOP(=S)(OCC)Oc1ccc([N+](=O)[O-])cc1 [Parathion] | > 90 µM | 
CCOC(=O)c1ccc(N(C)C)cc1 [Parbenate] | > 90 µM | 
CCCCc1ccc2[nH]c(NC(=O)OC)nc2c1 [Parbendazole] | 0.0667 µM | 
CCC(=O)NS(=O)(=O)c1ccc(-c2c(-c3ccccc3)noc2C)cc1 [Parecoxib sodium] | > 50 µM | 
CCOc1ccc(C(=O)OCCN(CC)CC)cc1 [Parethoxycaine] | > 50 µM | 
C#CCOC(C(=O)OCCN(C)C)(c1ccccc1)c1ccccc1 [Pargeverine hydrochloride] | > 50 µM | 

Structure (SMILES) | CC50 at 24 h (AC50 (uM) modified / 1000) | further results
C[C@H](/C=C/[C@H](C)C(C)(C)O)[C@H]1CC[C@H]2/C(=C/C=C3C[C@@H](O)C[C@H](O)C3)CCC[C@]12C [Paricalcitol] | 27 µM | 
OC(c1ccc(Cl)cc1)(c1ccc(Cl)cc1)c1cccnc1 [Parinol] | 64.3 µM | 
NC[C@@H]1O[C@H](O[C@H]2[C@@H](O)[C@H](O[C@@H]3[C@@H](O)[C@H](N)C[C@H](N)[C@H]3O[C@H]3O[C@H](CO)[C@@H](O)[C@H](O)[C@H]3N)O[C@@H]2CO)[C@H](N)[C@@H](O)[C@@H]1O [Paromomycin sulfate] | > 50 µM | 
Fc1ccc([C@@H]2CCNC[C@H]2COc2ccc3c(c2)OCO3)cc1 [Paroxetine] | 10.7 µM | 
CCC(=O)c1ccc(O)cc1 [Paroxypropione] | > 50 µM | 
C=C1C(=O)O[C@H]2[C@H]1CC/C(C)=C/CC[C@@]1(C)O[C@@H]21 [Parthenolide] | 13.8 µM | 
Cc1ccc(Nc2nccc(N(C)c3ccc4c(C)n(C)nc4c3)n2)cc1S(N)(=O)=O [Pazopanib] | > 50 µM | 
C[C@H]1COc2c(C3(N)CC3)c(F)cc3c(=O)c(C(=O)O)cn1c23 [Pazufloxacin] | > 50 µM | 
CCCCN(CC)C(=O)SCCC [Pebulate] | > 90 µM | 
CN1CCCC(CN2c3ccccc3Sc3ccccc32)C1 (stereo not drawn) [Pecazine] | 16.4 µM | 
CC(C(=O)O)c1ccc(/C=C2\CCCCC2=O)cc1 (stereo not drawn) [Pelubiprofen] | > 50 µM | 
Nc1nc2[nH]cc(CCc3ccc(C(=O)N[C@@H](CCC(=O)O)C(=O)O)cc3)c2c(=O)[nH]1 [Pemetrexed disodium] | > 50 µM | 
Cc1cccn2c(=O)c(-c3nnn[nH]3)cnc12 [Pemirolast potassium] | > 50 µM | 
NC1=NC(=O)C(c2ccccc2)O1 (stereo not drawn) [Pemoline] |  | CC50 at 24 h (AC50 (uM) modified / 1000, Tox21_110001=Tox21_112509, viability, 1 nM T3 present, 24 h): > 50 µM
CN1C(C)(C)CCCC1(C)C [Pempidine d-tartaric acid] | > 50 µM | 
CC(C)(C)NC[C@H](O)COc1ccccc1C1CCCC1 [Penbutolol sulfate] | 11.1 µM | 
Nc1nc2c(ncn2CCC(CO)CO)c(=O)[nH]1 [Penciclovir] | > 50 µM | 
CCCC(Cn1cncn1)c1ccc(Cl)cc1Cl (stereo not drawn) [Penconazole] | 78.4 µM | 
O=C(Nc1ccccc1)N(Cc1ccc(Cl)cc1)C1CCCC1 [Pencycuron] | 54.7 µM | 
OC1(c2ccc(Cl)c(C(F)(F)F)c2)CCN(CCCC(c2ccc(F)cc2)c2ccc(F)cc2)CC1 [Penfluridol] | 3.98 µM | 
CCCCCC1Nc2cc(C(F)(F)F)c(S(N)(=O)=O)cc2S(=O)(=O)N1 (stereo not drawn) [Penflutizide] | > 50 µM | 
CC1(C)S[C@@H]2[C@H](NC(=O)Cc3ccccc3)C(=O)N2[C@H]1C(=O)O [Penicillin G potassium] | > 50 µM | 
CC1(C)S[C@@H]2[C@H](NC(=O)COc3ccccc3)C(=O)N2[C@H]1C(=O)O [Penicillin VK] | > 90 µM | 
COc1cnc(OC)n2nc(NS(=O)(=O)c3c(OCC(F)F)cccc3C(F)(F)F)nc12 [Penoxsulam] | > 90 µM | 
